Results reported in ChEMBL document CHEMBL1201862, “PubChem BioAssay data set” (2004).
Activity calls are given as the source filed them. Rule as the data show it: actives have a measured IC50 and inactives only a lower limit.

Key:
Format in all cases: functional
[1] = biological target: T1, Sentrin-specific protease 7 (Homo sapiens, UniProt Q9BQF6); assay: inhibition of human SENP7 cleavage activity – biochemical, luminescence, set 2, SAR follow-up (AID 588600)
T1 sequence (Q9BQF6 whole entry): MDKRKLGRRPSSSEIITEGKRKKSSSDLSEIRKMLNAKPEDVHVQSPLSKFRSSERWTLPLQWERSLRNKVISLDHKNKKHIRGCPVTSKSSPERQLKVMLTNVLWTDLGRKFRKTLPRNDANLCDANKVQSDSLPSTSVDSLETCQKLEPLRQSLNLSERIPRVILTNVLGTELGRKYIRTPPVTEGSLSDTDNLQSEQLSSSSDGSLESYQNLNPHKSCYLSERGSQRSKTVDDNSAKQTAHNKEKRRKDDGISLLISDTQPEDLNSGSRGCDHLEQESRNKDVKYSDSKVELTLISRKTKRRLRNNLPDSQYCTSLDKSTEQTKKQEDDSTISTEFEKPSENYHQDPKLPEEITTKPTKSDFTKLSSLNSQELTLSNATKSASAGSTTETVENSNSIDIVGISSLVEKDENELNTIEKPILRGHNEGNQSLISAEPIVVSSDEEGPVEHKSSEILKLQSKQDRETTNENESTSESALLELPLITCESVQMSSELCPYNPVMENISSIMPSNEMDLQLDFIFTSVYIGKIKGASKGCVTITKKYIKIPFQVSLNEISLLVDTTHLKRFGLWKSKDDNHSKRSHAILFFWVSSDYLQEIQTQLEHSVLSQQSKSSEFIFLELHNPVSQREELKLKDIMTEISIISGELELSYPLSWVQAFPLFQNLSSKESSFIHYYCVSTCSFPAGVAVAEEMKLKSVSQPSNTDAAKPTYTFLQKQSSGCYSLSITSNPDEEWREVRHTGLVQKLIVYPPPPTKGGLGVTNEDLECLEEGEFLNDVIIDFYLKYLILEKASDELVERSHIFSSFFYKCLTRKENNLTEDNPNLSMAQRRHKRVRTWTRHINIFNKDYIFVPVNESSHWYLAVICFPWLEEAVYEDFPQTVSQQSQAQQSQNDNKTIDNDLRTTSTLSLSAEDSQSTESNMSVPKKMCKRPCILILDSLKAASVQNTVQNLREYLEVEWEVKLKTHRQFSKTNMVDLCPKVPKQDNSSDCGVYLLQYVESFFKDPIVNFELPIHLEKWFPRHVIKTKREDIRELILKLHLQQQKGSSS

[2] = biological target: T2, Sentrin-specific protease 6 (Homo sapiens, UniProt Q9GZR1); assay: inhibition of human SENP6 catalytic domain – biochemical, luminescence, set 2, SAR follow-up (AID 588598)
T2 sequence (Q9GZR1 whole entry): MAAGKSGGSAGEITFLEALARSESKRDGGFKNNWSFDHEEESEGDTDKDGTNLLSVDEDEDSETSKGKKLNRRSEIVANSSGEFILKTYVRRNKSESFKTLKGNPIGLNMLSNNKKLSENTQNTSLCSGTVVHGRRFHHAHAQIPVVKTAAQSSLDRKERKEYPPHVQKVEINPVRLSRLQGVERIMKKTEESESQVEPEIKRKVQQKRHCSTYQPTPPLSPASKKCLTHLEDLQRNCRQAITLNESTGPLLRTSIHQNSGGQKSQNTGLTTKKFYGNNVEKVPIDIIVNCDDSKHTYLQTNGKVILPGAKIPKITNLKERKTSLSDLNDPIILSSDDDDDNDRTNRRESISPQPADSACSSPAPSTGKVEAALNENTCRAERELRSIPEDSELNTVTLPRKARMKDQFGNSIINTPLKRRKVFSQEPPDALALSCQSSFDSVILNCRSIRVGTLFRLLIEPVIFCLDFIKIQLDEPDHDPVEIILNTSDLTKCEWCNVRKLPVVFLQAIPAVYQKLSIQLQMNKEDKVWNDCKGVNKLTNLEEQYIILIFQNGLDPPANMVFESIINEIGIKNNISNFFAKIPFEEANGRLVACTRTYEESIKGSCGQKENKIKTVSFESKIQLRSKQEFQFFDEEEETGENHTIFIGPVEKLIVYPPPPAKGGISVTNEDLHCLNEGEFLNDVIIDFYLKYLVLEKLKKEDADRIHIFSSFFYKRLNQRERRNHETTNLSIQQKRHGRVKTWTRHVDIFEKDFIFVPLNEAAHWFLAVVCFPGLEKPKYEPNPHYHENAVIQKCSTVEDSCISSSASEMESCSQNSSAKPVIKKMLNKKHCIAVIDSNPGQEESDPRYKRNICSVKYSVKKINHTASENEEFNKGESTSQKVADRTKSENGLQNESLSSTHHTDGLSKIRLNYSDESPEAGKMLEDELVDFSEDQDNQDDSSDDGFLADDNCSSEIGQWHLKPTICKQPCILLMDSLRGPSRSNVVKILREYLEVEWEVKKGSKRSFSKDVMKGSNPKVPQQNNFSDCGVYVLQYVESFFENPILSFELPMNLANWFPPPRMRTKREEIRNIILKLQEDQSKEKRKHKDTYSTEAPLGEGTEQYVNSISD

Caspase-3 = biological target: T3, Caspase-3 (Homo sapiens, UniProt P42574); assay: inhibition of recombinant caspase-3 activity – biochemical, luminescence, set 2, selectivity assay for SENP protease inhibitor project, SAR follow-up (AID 588599)
T3 sequence (P42574 whole entry): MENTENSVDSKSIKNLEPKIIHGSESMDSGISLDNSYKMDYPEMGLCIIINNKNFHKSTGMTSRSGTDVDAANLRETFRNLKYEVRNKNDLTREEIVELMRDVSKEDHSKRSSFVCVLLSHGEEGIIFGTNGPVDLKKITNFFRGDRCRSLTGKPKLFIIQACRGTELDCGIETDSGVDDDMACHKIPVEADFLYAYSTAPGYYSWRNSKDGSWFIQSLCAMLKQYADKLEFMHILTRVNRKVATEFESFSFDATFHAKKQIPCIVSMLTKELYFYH

[3] = biological target: T4, Sentrin-specific protease 8 (Homo sapiens, UniProt Q96LD8); assay: inhibition of sentrin protease 8 – biochemical, luminescence, set 2, SAR follow-up (AID 588601)
T4 sequence (Q96LD8 whole entry): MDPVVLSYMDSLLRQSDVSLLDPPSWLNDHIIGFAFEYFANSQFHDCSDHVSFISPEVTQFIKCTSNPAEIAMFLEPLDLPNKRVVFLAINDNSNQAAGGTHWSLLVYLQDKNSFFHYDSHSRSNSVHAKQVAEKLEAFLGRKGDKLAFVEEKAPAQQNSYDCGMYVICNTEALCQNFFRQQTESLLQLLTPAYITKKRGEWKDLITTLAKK

Measured: IC50

COc1ccc(N2CCN(C(=O)C(=O)c3c(C)[nH]c4ccccc34)CC2)cc1
inactive: [1] > 99 µM | [2] > 99 µM | Caspase-3 > 99 µM | [3] > 99 µM
